Measurements taken from ChEMBL document CHEMBL1126059 (J Med Chem, 1992).
Where a SMILES comes first, the peptide text is derived from it. [ ]: non-standard residue; d: D form. The star is where a group is joined. Boc = CC(C)(C)OC(=O)*; OBn = c1ccc(CO*)cc1; For = O=C*

Experiments:
[1] = target: T1, Substance-P receptor (Cavia porcellus, UniProt P30547); assay: Displacement of specific binding of [3H]SP to tachykinin receptor 1 from the isolated guinea pig tracheal strips
[2] = target: T1, Substance-P receptor; assay: In vitro inhibitory concentration that gave 50% displacement of specific binding of [3H]SP to Tachykinin receptor 1 from the isolated guinea pig tracheal strips; No inhibition at 10E-4 M.

T1 sequence (P30547 whole entry): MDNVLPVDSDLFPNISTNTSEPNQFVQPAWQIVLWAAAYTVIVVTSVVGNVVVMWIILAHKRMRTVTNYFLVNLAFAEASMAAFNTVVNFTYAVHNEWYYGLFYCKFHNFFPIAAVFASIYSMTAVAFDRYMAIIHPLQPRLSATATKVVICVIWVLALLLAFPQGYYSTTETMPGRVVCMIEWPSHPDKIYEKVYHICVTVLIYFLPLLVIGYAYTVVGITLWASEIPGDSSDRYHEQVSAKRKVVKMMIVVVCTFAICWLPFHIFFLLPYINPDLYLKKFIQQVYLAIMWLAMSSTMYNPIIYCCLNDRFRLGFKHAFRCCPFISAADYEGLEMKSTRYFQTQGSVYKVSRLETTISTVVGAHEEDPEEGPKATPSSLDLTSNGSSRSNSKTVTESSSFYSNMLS

Compound | IC50 [1] [nM] | IC50 [2]
CC(C)(C)OC(=O)N[C@@H](CCC(N)=O)C(=O)N[C@H](Cc1c[nH]c2ccccc12)C(=O)N[C@@H](Cc1ccccc1)C(N)=O | 38700 | –
CC(C)(C)OC(=O)N[C@@H](CCC(N)=O)C(=O)N[C@H](Cc1cn(C=O)c2ccccc12)C(=O)NCC(=O)OCc1ccccc1 | – | Not Active
CC(C)(C)OC(=O)N[C@@H](CCC(N)=O)C(=O)N[C@H](Cc1cn(C=O)c2ccccc12)C(=O)N1CCC[C@H]1C(=O)OCc1ccccc1 | – | Not Active
CC(C)(C)OC(=O)N[C@@H](CCC(N)=O)C(=O)N[C@H](Cc1c[nH]c2ccccc12)C(=O)N[C@@H](Cc1ccccc1)C(=O)OCc1ccccc1 | 550 | –
NC(=O)CC[C@H](NC(=O)OCc1ccccc1)C(=O)N[C@@H](CCC(N)=O)C(=O)N[C@H](Cc1c[nH]c2ccccc12)C(=O)O | > 100000 | –
CC(C)(C)OC(=O)N[C@H](Cc1c[nH]c2ccccc12)C(=O)N[C@H](Cc1c[nH]c2ccccc12)C(=O)N[C@@H](Cc1ccccc1)C(=O)OCc1ccccc1 | > 100000 | –
CN(C(=O)[C@@H](Cc1cn(C=O)c2ccccc12)NC(=O)[C@H](CCC(N)=O)NC(=O)OC(C)(C)C)[C@@H](Cc1ccccc1)C(=O)OCc1ccccc1 | 240 | –
O=C(N[C@@H](Cc1ccccc1)C(=O)N[C@H](Cc1c[nH]c2ccccc12)C(=O)N[C@H](Cc1c[nH]c2ccccc12)C(=O)OCc1ccccc1)OCc1ccccc1 | 100000 | –
NC(=O)CC[C@H](NC(=O)[C@H](CCC(N)=O)NC(=O)[C@H]1CCCN1)C(=O)O | > 100000 | –
CC(C)(C)OC(=O)NCC(=O)N[C@H](Cc1cn(C=O)c2ccccc12)C(=O)N[C@@H](Cc1ccccc1)C(=O)OCc1ccccc1 | 420 | –
CC(C)(C)OC(=O)N[C@@H](CCC(N)=O)C(=O)N[C@H](Cc1cn(C=O)c2ccccc12)C(=O)N[C@@H](Cc1ccccc1)C(=O)O | > 100000 | –
O=C1CC[C@@H](C(=O)N[C@H](Cc2c[nH]c3ccccc23)C(=O)N[C@@H](Cc2ccccc2)C(=O)O)N1 | > 100000 | –
CC(C)(C)OC(=O)N[C@@H](CCC(N)=O)C(=O)N[C@H](Cc1ccccc1)C(=O)N[C@@H](Cc1ccccc1)C(=O)OCc1ccccc1 | 380 | –
O=C(N[C@H](Cc1c[nH]c2ccccc12)C(=O)N[C@@H](Cc1ccccc1)C(=O)N[C@H](Cc1c[nH]c2ccccc12)C(=O)O)OCc1ccccc1 | 23800 | –
CC(C)(C)OC(=O)N[C@@H](CCC(N)=O)C(=O)N[C@H](Cc1cn(C=O)c2ccccc12)C(=O)N[C@@H](Cc1ccccc1)C(=O)OCCc1ccccc1 | 500 | –
NC(=O)CC[C@H](NC(=O)[C@@H]1CCC(=O)N1)C(=O)N[C@H](Cc1c[nH]c2ccccc12)C(=O)O | > 100000 | –
CSCC[C@@H](NC(=O)[C@H](CCC(N)=O)NC(=O)OC(C)(C)C)C(=O)N[C@@H](Cc1ccccc1)C(=O)OCc1ccccc1 | 790 | –
CC(C)(C)OC(=O)N[C@@H](CCC(N)=O)C(=O)N[C@H](Cc1cn(C=O)c2ccccc12)C(=O)N[C@H](Cc1ccccc1)C(=O)OCc1ccccc1 | 770 | –
NC(=O)[C@@H](Cc1c[nH]c2ccccc12)NC(=O)[C@H](Cc1ccccc1)NC(=O)[C@@H](Cc1c[nH]c2ccccc12)NC(=O)OCc1ccccc1 | > 100000 | –
CC(C)(C)OC(=O)N1CCC[C@@H]1C(=O)N[C@@H](CCC(N)=O)C(=O)N[C@@H](CCC(N)=O)C(N)=O | > 100000 | –

Compound | IC50 [1] [nM] | IC50 [2]
NC(=O)CC[C@H](NC(=O)[C@H](CCC(N)=O)NC(=O)[C@H]1CCCN1)C(=O)N[C@H](Cc1c[nH]c2ccccc12)C(=O)N[C@@H](Cc1ccccc1)C(=O)N[C@H](Cc1c[nH]c2ccccc12)C(=O)N[C@H](Cc1c[nH]c2ccccc12)C(=O)N[C@@H](Cc1ccccc1)C(N)=O | 600 | –
CC(C)(C)OC(=O)N[C@@H](CCC(N)=O)C(=O)N[C@H](Cc1cn(C=O)c2ccccc12)C(=O)N1C(C(=O)c2ccccc2)CC[C@H]1C(=O)OCc1ccccc1 (stereo not given in full) | 450 | –
CC(C)(C)OC(=O)N[C@@H](CCC(N)=O)C(=O)N[C@H](Cc1cn(C=O)c2ccccc12)C(=O)N[C@@H](Cc1ccccc1)C(=O)OCc1ccc(Cl)cc1 | 1000 | –
CC(C)[C@H](NC(=O)[C@@H](Cc1cn(C=O)c2ccccc12)NC(=O)[C@H](CCC(N)=O)NC(=O)OC(C)(C)C)C(=O)OCc1ccccc1 | – | Not Active
NC(=O)CC[C@H](N)C(=O)N[C@H](Cc1cn(C=O)c2ccccc12)C(=O)N[C@@H](Cc1ccccc1)C(=O)OCc1ccccc1 | 210 | –
CC(C)(C)OC(=O)N[C@@H](Cc1ccc(O)cc1)C(=O)N[C@H](Cc1cn(C=O)c2ccccc12)C(=O)N[C@@H](Cc1ccccc1)C(=O)OCc1ccccc1 | 260 | –
CC(C)(C)OC(=O)N[C@@H](CCC(N)=O)C(=O)N[C@H](Cc1cn(C=O)c2ccccc12)C(=O)N1Cc2ccccc2CC1C(=O)OCc1ccccc1 (stereo not given in full) | 140 | –
CC(C)C[C@@H](NC(=O)[C@H](CCC(N)=O)NC(=O)OC(C)(C)C)C(=O)N[C@@H](Cc1ccccc1)C(=O)OCc1ccccc1 | 1000 | –
CC(C)(C)OC(=O)N[C@@H](CCC(N)=O)C(=O)N[C@H](Cc1cn(C=O)c2ccccc12)C(=O)N[C@@H](Cc1ccccc1)C(=O)OCc1ccccc1 | 90 | –
O=C(N[C@H](Cc1c[nH]c2ccccc12)C(=O)N[C@@H](Cc1ccccc1)C(=O)N[C@H](Cc1c[nH]c2ccccc12)C(=O)OCc1ccccc1)OCc1ccccc1 | 10000 | –
CC(C)(C)OC(=O)N[C@@H](CCC(N)=O)C(=O)N[C@@H](Cc1cn(C=O)c2ccccc12)C(=O)N[C@@H](Cc1ccccc1)C(=O)OCc1ccccc1 | 360 | –
O=C(N[C@@H](Cc1ccccc1)C(=O)N[C@H](Cc1c[nH]c2ccccc12)C(=O)N[C@H](Cc1c[nH]c2ccccc12)C(=O)O)OCc1ccccc1 | > 100000 | –
CC(C)(C)OC(=O)N[C@@H](CCC(N)=O)C(=O)N[C@H](Cc1cn(C=O)c2ccccc12)C(=O)N[C@@H](Cc1ccccc1)C(=O)OCC1CCCCC1 | 400 | –
CC(C)(C)OC(=O)N[C@@H](CCC(N)=O)C(=O)N[C@@H](Cc1ccccc1)C(=O)N[C@@H](Cc1ccccc1)C(=O)OCc1ccccc1 | 1000 | –
CC(C)(C)OC(=O)N[C@@H](CCC(N)=O)C(=O)N[C@H](Cc1cn(C=O)c2ccccc12)C(=O)N[C@@H](Cc1ccc(O)cc1)C(=O)OCc1ccccc1 | 390 | –
NC(=O)CC[C@H](NC(=O)[C@H]1CCCN1C(=O)OCc1ccccc1)C(=O)N[C@@H](CCC(N)=O)C(=O)OCc1ccccc1 | 10000 | –
CC(C)(C)OC(=O)N[C@@H](CCC(N)=O)C(=O)N[C@H](Cc1c[nH]c2ccccc12)C(=O)N[C@@H](Cc1ccccc1)C(=O)O | > 100000 | –
CC(C)(C)OC(=O)N1CCC[C@@H]1C(=O)N[C@@H](CCC(N)=O)C(=O)N[C@@H](CCC(N)=O)C(=O)OCc1ccccc1 | 100000 | –
CC(C)(C)OC(=O)N[C@@H](CO)C(=O)N[C@H](Cc1cn(C=O)c2ccccc12)C(=O)N[C@@H](Cc1ccccc1)C(=O)OCc1ccccc1 (Boc-Ser-[dW](For)-Phe-OBn) | 110 | –
C[C@@H](O)[C@H](NC(=O)OC(C)(C)C)C(=O)N[C@H](Cc1cn(C=O)c2ccccc12)C(=O)N[C@@H](Cc1ccccc1)C(=O)OCc1ccccc1 (Boc-Thr-[dW](For)-Phe-OBn) | 110 | –
